# Literature values as cited in patent publication US20250339399A1, “SUPRAMOLECULAR SELF-ASSEMBLY SYSTEM” (Beijing Creatron Institute of Pharmaceutical Research Co., …, priority 2022, published 2025).
# Details: Cannabidiol derivatives, Table 30 (chemical structures); cited from earlier work
row,Molecule,Log P
1,"C=C(C)[C@@H]1CCC(C)=C[C@H]1c1c(O)cc(CCCCC)cc1OCCCN [compound 51, ((1′R,2′R)-6-(3-aminopropoxy)-5′-methyl-4-pentyl-2′-(prop-1-en-2-yl)-1′,2′,3′,4′-tetrahydro-[1,1′-biphenyl]-2-ol)]","Log P = 5.73 H-D:2,H-R = 3"
2,C=C(C)[C@@H]1CCC(C)=C[C@H]1c1c(OC(=O)CO[Si](C)(C)C(C)(C)C)cc(CCCCC)cc1OC(=O)CO[Si](C)(C)C(C)(C)C [compound 54],"Log P = 9.55 H-D:0,H-R = 4"
3,"C=C(C)[C@@H]1CC(OC(C)=O)C(C)=C[C@H]1c1c(OC(C)=O)cc(CCCCC)cc1OC(C)=O (stereo partly drawn) [compound 57, (3-(acetyloxy)-2-[(1R,6R)-4-(acetyloxy)-3-methyl-6-(prop-1-en-2-yl)cyclohex-2-en-1-yl]-5-pentylphenyl acetate)]","Log P = 5.36 H-D:0,H-R = 3"
4,"C=C(C)[C@@H]1CCC(C)=C[C@H]1C1=C(O)C(=O)C(CCCCC)=CC1=O [compound 59, (3-hydroxy-2-[(1R,6R)-3-methyl-6-prop-1-en-2-ylcyclohex-2-en-1-yl]-5-pentylcyclohex-2,5-diene-1,4-dione)]","Log P = 5.23 H-D:1,H-R = 3"
5,"C=C(C)[C@@H]1CCC(C)=C[C@H]1C1=C(O)C(=O)C(CCCCC)=C(NCc2ccccc2)C1=O [compound 61, (2,5-cyclohexadiene-1,4-dione, 2-hydroxy-3-((1R,6R)-3-methyl-6-(1-methylvinyl)-2-cyclohexen-1-yl)-6-pentyl-5-((benzyl)amino))]","Log P = 6.23 H-D:2,H-R = 4"
6,"C=C(C)[C@@H]1CCC(C)=C[C@H]1c1c(C)cc(O)cc1O [compound 62, (5-methyl-4-[(1R,6R)-3-methyl-6-prop-1-en-2-ylcyclohex-2-en-1-yl]benzene-1,3-diol)]","Log P = 4.55 H-D:2,H-R = 2"
7,"C=C(C)[C@@H]1CCC(C)=C[C@H]1c1c(O)cc(O)cc1CCCCC [compound 63, (4-[(1R,6R)-3-methyl-6-prop-1-en-2-ylcyclohex-2-en-1-yl]-5-pentylbenzene-1,3-diol)]","Log P = 6.33 H-D:2,H-R = 2"
8,"CCCCCc1cc(O)c2c(c1)OC(C)(C)[C@@H]1CCC(C)=C[C@@H]21 [compound 66, Tetrahydrocannabinol]","Log P = 5.73 H-D:1,H-R = 2"
9,"(2-[(1R,2R)-2-[2,6- di(acetoxy)-4- pentenyl]-4- methylcyclohex-3- en-1-yl]prop-2-en- 1-yl acetate) [compound 58]","Log P = 5.31 H-D:0,H-R = 3"

# Same assay, conditions: cited from earlier work
row,Molecule,Log P
1,"CCCCCc1cc(O)c(C/C=C(\C)CCC=C(C)C)c(O)c1 [compound 64, (2-[(2E)-3,7-dimethylocta-2,6-dienyl]-5-pentylbenzene-1,3-diol)]","Log P = 7.05 H-D:2,H-R = 2"
